Measured values: BigSolDB 2.1

CC(C)(C)OC(=O)N1CCC[C@H]1C(=O)O
solubility (mole fraction)
Settings | 283.15 K | 288.15 K | 293.15 K | 298.15 K | 303.15 K | 313.15 K | 323.15 K
in 2-butanone | 0.0371 | – | 0.0532 | – | 0.0687 | 0.0925 | 0.125
in acetone | 0.0457 | – | 0.06 | – | 0.075 | 0.0965 | 0.129
in acetonitrile | 0.0113 | – | 0.0166 | – | 0.0247 | 0.0379 | 0.054
in dichloromethane | 0.0896 | 0.098 | 0.107 | 0.116 | 0.125 | – | –
in ethanol | 0.0968 | – | 0.111 | – | 0.133 | 0.172 | 0.215
in ethyl acetate | 0.0217 | – | 0.0303 | – | 0.0392 | 0.0494 | 0.0606
in isobutanol | 0.072 | – | 0.0942 | – | 0.12 | 0.143 | 0.166
in isopropanol | 0.0971 | – | 0.114 | – | 0.134 | 0.168 | 0.208
in methanol | 0.115 | – | 0.15 | – | 0.196 | 0.24 | 0.297
in methyl acetate | 0.0252 | – | 0.0339 | – | 0.0436 | 0.055 | 0.0698
in n-butanol | 0.0889 | – | 0.103 | – | 0.126 | 0.149 | 0.178
in n-propanol | 0.0944 | – | 0.109 | – | 0.132 | 0.16 | 0.19
in sec-butanol | 0.0968 | – | 0.127 | – | 0.157 | 0.193 | 0.232
in water | 6.6e-05 | – | 0.000204 | – | 0.000593 | 0.000959 | 0.00144
